Entries after “also recorded” stand apart in the source; their conditions may differ.
Key:
NGF = NGF production in the central nervous system of normal rats by intraperitoneal injection (NGF content of brain tissue, ELISA); type: in vivo, rat (Wistar male)
Experimental: The derivative (A), e.g. R=Two H, R1 =H and R2 =n-propyl (hereinafter referred to as 4-n-propylcatechol), was administered to normal rats by intraperitoneal injection, and the effect was examined.
4-n-Propylcatechol was administered by intraperitoneal injection 4 times every other day in a dosage of 5 mg/kg. The rats were killed two days after the final administration. The NGF content of each parts in brain was measured. The content was compared with those of control group which was administered saline alone.
A variety of the derivative was administered three times every other day. The content of NGF in the forebrain after 48 hours and 7 days from the final administration was measured and illustrated in Table 7.
Wistar male rats (9-10-week old, 200-250 g of weight) were intraperitoneally injected with the test derivative in a volume of 0.5 ml as a saline solution, emulsion or suspension. Dose and administration times were the same as above. The rats were killed by a hard spinal blow two days after the final administration. Each parts of brain were dissected and subjected to the following treatment under ice cooling.
Each parts of brain were weighed and homogenized for 30 strokes by a Dounce type homogenizer in a homogenization buffer (0.1 M Tris-HCl, containing 2% bovine serum albumin fraction V, 2% gelatin, 1.0 M NaCl, 0.02% NaN3, 2 mM EDTA and 2.6 kiu/ml of aprotinin, pH 7.6) at a concentration of 10% (W/V) (only septum 5% (W/V)). Each homogenate was centrifuged at 100,000 xg for 10 minutes, and 50 μl of supernatant was added with the same amount of a dilution buffer (0.1 M Tris-HCl containing 2% bovine serum albumin fraction V, 0.05% NaN3 and 20 mM CaCl2, pH 7.6). Determination was conducted in accordance with a method of S. Furukawa et al. by using a high sensitivity ELISA system on 8-NGF which was described in J. Neurochem., 40, 734-744 (1983). Lower limit of determination is 0.25 pg/ml. Data are indicated as a mean value ±SE on the NGF content of tissue (pg/mg wet tissue) of five rats.

[1] = system: rats injected with kainic acid at basal forebrain; assay: Promotion of recovery from retention deficits by repeated learning (passive avoidance); type: in vivo, rat (male Sprague-Dawley); design: key: latency in seconds to enter dark chamber, capped at 300 s; settings: Table 9, i.p. 5 mg/kg before each trial
Experimental: (§1) Effects of the derivative on the behavioral parameters of rats injected with kainic acid at basal forebrain were characterized with regard to both prevention against deficits in retention of passive avoidance learning and promotion of recovery from damaged state by repeated learning.
(§2) Male Sprague-Dawley rats (9-10 weeks of age, 200-250 g of weight) were anesthetized with Nembutal (50 mg/kg, i.p.) and placed in a stereotaxic apparatus. Bilateral lesions of the ventral globus pallidus were made by direct stereotaxic application (0.7 mm posterior to bregma, 2.7 mm lateral to the midline, and 7.0 mm ventral to the brain surface) of 0.25 μg of kainic acid in 1 μl of PBS (pH 7.4) to prepare disordered models. Controls were sham-operated rats injected with PBS in place of kainic acid solution.
(§3) Passive avoidance procedures were performed by using a two chambered step-through passive avoidance apparatus with a guillotine door. A 3 mA scrambled shock was delivered to the dark floor grids for 3 seconds as a punishment. Habituation trial was conducted prior to the acquisition trial. Each rats were placed in the illuminated chamber and the guillotine door was raised after 10 seconds. As soon as the rats entered into the dark chamber, the door was lowered. The rats were removed after 10 seconds and returned to their home cages. […] The acquisition trial was performed similarly to the habituation trial. In the former case, a rat was placed in the illuminated room and the door was opened after 10 seconds. The door was shut immediately after the rat entered into the dark room, a scrambled foot shock was applied, and then the animal was removed. The latency to enter the dark chamber after opening the door was recorded for 300 seconds in the retention of passive avoidance. The latency exceeding 300 seconds was calculated as 300 seconds.
The promoting effects on the recovery by repeated training from the damaged state of retention were acessed by using 30 rats injected with kainic acid. Rats were subjected to the acquisition trial 10 days after the operation. The rats were equally divided into 3 groups after 24 hours and injected intrapenitroneally with 5 mg/kg of 4-n-propylcatechol and the derivative (A) (R=--CO--, R=H, R2 =n-propyl) respectively as a saline solution. The remaining 10 rats were intraperitoneally injected with saline alone. The first retention trial was carried out two days after the injection. Rats which entered into the dark chamber within 30 seconds were punished by the scrambled foot shock as a training. On the next day, all animals were administered again the same amount of test derivative or saline. These animals were subjected to the second retention trial two days after the second injection.
Retention trials, punishments and additional administrations were repeated as mentioned above four times in all.

[2] = system: rats injected with kainic acid at basal forebrain / sham-operated rats; assay: Retention of passive avoidance learning: prevention of retention deficits; type: in vivo, rat (male Sprague-Dawley); settings: Table 8, i.p. 5 mg/kg on days 1, 4, 7
Experimental: as §1, §2, §3
The preventive effects on deficits in retention were estimated by using 60 rats. Thirty rats were injected with kainic acid and other 30 rats were sham-operated with PBS.
Each groups of animals were equally divided into three groups which were received intraperitoneally 5 mg/kg of the derivative (A) (R=2H, R1 =H, R2 =n-propyl, that is, 4-n-propylcatechol), derivative A (R=--CO--, R1 =H, R2 =n-propyl) and saline respectively as a saline solution on one, four and seven days after the operation.
Table 8 illustrates the results obtained by conducting the acquisition trial 10 days after the operation and the retention test after 24 hours.

[3] = Table 6, i.p. 5 mg/kg, 4 times every other day
[4] = Table 6, i.p. 5 mg/kg, 4 times every other day, **P 0.01 vs saline

SMILES: CCCc1ccc(O)c(O)c1 [R = Two H, R1 = H, R2 = n-Propyl, 4-n-propylcatechol]
- NGF production in brain regions (in words) (NGF): marked activation of NGF production was observed in frontal cortex, hippocampus and olfactory bulb; also recorded: Significant increase in NGF level was also observed in the original region of cholinergic tracts
- NGF content, cerebellum (NGF; [3]): 0.33 ± 0.16 pg/mg wet tissue
- NGF content, striatum (NGF; [3]): 0.24 ± 0.04 pg/mg wet tissue
- NGF content, NBM (nucleus basalis magnecellularis) (NGF; [4]): 1.69 ± 0.17 pg/mg wet tissue
- NGF content, olfactory bulb (NGF; [4]): 1.70 ± 0.24 pg/mg wet tissue
- NGF content, septum (NGF; [4]): 1.39 ± 0.14 pg/mg wet tissue
- NGF content, hippocampus (NGF; Table 6, i.p. 5 mg/kg, 4 times every other day, *P < 0.05 vs saline): 3.92 ± 0.63 pg/mg wet tissue
- NGF content, frontal cortex (NGF; Table 6, i.p. 5 mg/kg, 4 times every other day, two days after final administration, *P < 0.05 vs saline): 2.14 ± 0.49 pg/mg wet tissue
- NGF content after 48 hr. (NGF; Table 7, i.p., three times every other day, 48 hours after final administration): 1.97 ± 0.41 pg/mg wet tissue of frontal co
- NGF content after 7 days (NGF; Table 7, i.p., three times every other day, 7 days after final administration): 2.28 ± 0.29 pg/mg wet tissue of frontal co
- Mean latency, 1st retention trial [1]: 47 ± 16
- Mean latency, 4th retention trial ([1]; **P < 0.01): 272 ± 14
- Mean latency, 2nd retention trial ([1]; *P < 0.05): 147 ± 29
- Mean latency, 3rd retention trial ([1]; *P < 0.05): 201 ± 23
- Animals with more than 150 sec of latency ([2]; rats operated with kainic acid): 3 in 10 animals
- Mean latency ([2]; rats operated with kainic acid, *P < 0.01 vs control): 114 ± 44 s
- Animals with more than 150 sec of latency ([2]; sham-operated rats): 10 in 10 animals
- Mean latency ([2]; sham-operated rats): 286 ± 9 s

Source: US5214034A, “Catechol derivatives, and preventive and remedial preparations for regressive disorders in the central nervous system containing the same” (priority 1986, dated 1993)
